The values that follow come from patent US8404747B2, “Compositions and methods for modulating interaction between polypeptides” (The General Hospital Corporation, priority 2004, dated 2013).

In data set [1] the test system is aggregation of 103Q in PC12 cells. The experiment in a line: polyQ (103Q) aggregation in ecdyson-inducible PC12 cells. It counts as cell-based, rat. The procedure: (§1) To study the inhibitors we identified using the yeast screen in mammalian cells, we employed ecdyson-inducible rat phaeochromocytoma (PC12) cells. Compounds were tested in two clones, 14A2/5 and 14A2/6, with highest aggregation rate. We incubated undifferentiated PC12 cells with muristerone A to induce 103Q expression, and we exposed the cells to compounds at concentrations ranging from 1 to 10 μM. […] All compounds were non-toxic except C2, which was toxic at concentrations higher than 5 μM.
We tested these analogs at concentrations ranging from 0.025 μM to 5.0 μM for their effects on polyQ aggregation in PC12 cells. Among 24 analogs of C1; 28 analogs of C2; 24 analogs of C3, and 53 analogs of C4, we identified several potent inhibitors of polyQ aggregation. From our C2 focus library, we isolated compound C2-8 (B2 in Table 2), which inhibits polyQ aggregation with an IC50 value 50 nM. We also identified C2-10 (B6 in Table 2) and C2-11 (M16 (formula V(n)) in Table 5), and B7, B8 and B9 in Table 2. From our C3 focus library, we isolated compound C3-5 (M22 (formula V(t)) in Table 5) (having an IC50 value of 100 nM) and compound C3-6 (M17 (formula V(o)) in Table 5) (having an IC50 value of 5 μM). From our C4 library, we isolated compound C4-7 (A31 in Table 1), which has an IC50 value 100 nM. We also identified C4-34 (A3 in Table 1).

Another data set relates to PC12 cells. The experiment in a line: toxicity in PC12 cells. It counts as cell-based, rat. The procedure:
as §1
In the C1 library, no inhibitors of polyQ aggregation with high potency were found.

The subject of a further data set is Cos1 cells. In words: toxicity for Cos1 cells. Format: cell-based. The procedure: The inhibitory activity we observed with C1-C4 in the PC12 cell model described above was confirmed in Cos1 cells transiently transfected with a CMV promoter-based DNA construct that encodes an Htt exon I fragment of Huntington's disease protein (Htt)) having 51 consecutive glutamine residues (HD Q51). When expressed in Cos1 cells, HD 51Q polypeptides readily form aggregates. Transfected Cos1 cells were incubated with C1-C4 compounds in culture medium and lysed. The lysates were then heat-denatured in SDS and passed through a cellulose acetate membrane, which captures aggregated, but not soluble polypeptides. Polyglutamine aggregates trapped on membranes were detected by immunostaining with antibody specific to extended polyQ. Pre-incubation of cells with compounds C1, C3, and C4 decreased the amount of retained polyQ, indicating inhibitory effects on polyQ aggregation. The IC50 for compound C1 was 10 μM and the IC50 for compounds C3 and C4 was 5 μM. As C2 was toxic for Cos1 cells, its effect on aggregation was not determined.

The target in data set [2] is T1, Recombinant HD Q51 polypeptide (Homo sapiens, UniProt P42858, INS38QQQQQQQQQQQQQQQQQQQQQQQQQQQQQQ).
T1 construct: made in house
T1 sequence (P42858 with tags, fused parts or gaps with the stated changes): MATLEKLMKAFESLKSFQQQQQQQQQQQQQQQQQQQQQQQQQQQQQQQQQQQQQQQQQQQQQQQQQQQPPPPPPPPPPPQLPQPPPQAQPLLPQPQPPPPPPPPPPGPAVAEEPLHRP
The experiment in a line: cell-free trap assay of purified polyQ. Format: biochemical. To be noted: cell-free; up to 100 mM. The method, then:
To determine whether C2 could directly interfere with polyQ aggregation, we reproduced this process in vitro and assayed the inhibitory effects of the compounds in a cell-free trap assay. Recombinant HD Q51 polypeptide, purified from bacteria, was incubated in the presence or in the absence of C2 for a time sufficient to allow aggregation. Then, upon heat-denaturation in SDS buffer, samples were filtered through a cellulose acetate membrane. Harsh denaturation conditions separated unaggregated soluble peptides, which passed through the membrane, and insoluble aggregates, which were retained on the membrane. The polyQ aggregates trapped on the membrane were subsequently immunostained and quantified.
Congo Red, which is structurally unrelated to C2-8, was used as a control.

Another data set relates to p53 protein. In words: levels of endogenous p53 protein in PC12 cells. Format: cell-based, rat. The procedure: The protein levels of Htt fragments containing 103Q in PC12 cells were not affected by incubation with compounds at the concentrations tested. Furthermore, proteolytic capacity of cells treated with compound C2 appeared to be normal, since levels of a highly unstable endogenous p53 protein in PC12 cells were not changed.

In the next data set the test system is htt103Q-EGFP. The experiment in a line: PC12 htt103Q-EGFP fluorescence assay. It counts as cell-based. The note with it: PC12 cells. From the text:
A PC12 cell line was engineered to express extended polyQ under the control of an ecdysone-inducible promoter. In the assay cell line, an N-terminal fragment of htt containing an extended polyQ tract was stably expressed as a fusion with EGFP (htt103Q-EGFP), from the pIND vector. Expression of extended polyQ in these cells was controlled by addition of an ecdysone analog, in this case muristerone A. In this assay, EGFP fluorescence directly correlated with htt103Q-EGFP expression levels. This system was designed to assess the effects of specific compounds on overall levels of extended polyglutamines in cells, using a simple fluorescent-based read-out.

Another data set concerns proteasomal dysfunction. In words: proteasomal dysfunction in PC12 cells expressing extended polyQ. It counts as cell-based.
In data set [3] the test system is polyQ-containing polypeptides. The experiment in a line: aggregation of polyQ-containing polypeptides, assay not specified.
For the next data set, the system named is photoreceptor neurons. The experiment in a line: Drosophila HD photoreceptor neurodegeneration model. Format: in vivo. From the text:
A variety of animal models of Huntington disease have been developed. Examination of the degeneration of photoreceptor neurons facilitated by extended polyQ expression is one such model (Jackson et al., Neuron 21:633-642, 1998).
We used the photoreceptor model in Drosophila to test a variety of different compounds, including naphthylamine derivatives, for an effect on neurodegeneration. […] C9-2 is 2-(3-methoxypropyl)-1H-benzo[de]isoquinoline-1,3(2H)-dione.

Another data set relates to HDAc. In words: HDAc activity. Format: biochemical.
The subject of data set [4] is striatum of 11Q/111Q cells and PC12 cells. The experiment in a line: transcriptional activation or repression in striatum 111Q cells and PC12 cells. It counts as cell-based. From the text:
Biochemical activity associated with C9-2 is not well understood. […] Future studies include testing the compound for anti-apoptotic activity, and transcriptional profiling using a striatum cell line derived from a double knock-out mutant htt mouse. The C9-2 analogs C9-2B (A30 in Table 1) and C9-2A (control) (A29 in Table 1) are being tested for an effect on photoreceptor neurodegeneration in the Drosophila HD model.

Another data set has as its system DNA. In words: DNA binding activity.
Data set [5] deals with SP1 trancription factor binding motif (6XSP1) promoter. The experiment in a line: 6XSP1 luciferase transcription-based assay in 111Q/111Q striatum double knock-in cells. It counts as cell-based, mouse. The note with it: 6XSP1 luciferase reporter; CG4 among CG series, less potent than C9-4. The procedure:
FIGS. 1A-1C. FIG. 1A is a bar graph showing luciferase expression in Sp1-luc/111Q striatum double knock-in cells following treatment with different compounds, as indicated. Fluorescence was measured 24 hours after addition of compound. FIG. 1B is a bar graph as described in FIG. 1A. Fluorescence was measured 48 hours after addition of compound. FIG. 1C is a bar graph as described in FIG. 1A. Fluorescence was measured 72 hours after addition of compound.
We conducted structure activity relationship (SAR) studies to optimize transcription activation. We developed a novel transcription-based assay for this purpose. A luciferase reporter gene was stably integrated into 111Q/111Q striatum double knock-in cells and constitutively expressed under control of a promoter containing six copies of the SP1 trancription factor binding motif (6XSP1). In this system, C9 was determined to have an EC200 of 7.5 μM.

Data set [6] deals with mutant Huntingtin transgene (htt). In words: transgene (mutant htt, extended polyQ) expression in inducible PC12 cells. It counts as cell-based, rat. To be noted: 2.5 μM. From the text: The compound C9 (A33 in Table 1) has structural similarity to the histone deacetylase (HDAc) inhibitor, scriptaid (6-(1,3-Dioxo-1H,3H-benzo[de]isoquinolin-2-yl)-N-hydroxyhexanamide) (Su et al., Cancer Res. 60:3137, 2000; A5 in Table 1). We observed the most dramatic effect on expression level by C9 and scriptaid in the PC12 cell line 14A2/6 expressing the extended polyQ mutant htt(104Q). The effect of C9 on the down-regulation of polyQ expression, was similar to cystamine, a drug that has shown efficacy in a mouse model for Huntington's Disease (HD). […] 14A2/6 cells were at least 5-fold more responsive to chemical treatment than other cell lines tested.
Transcriptional dysregulation is a hallmark of HD. […] Expression of the polypeptide was under control of an inducible ecdysone receptor (EcR)-based promoter.

For the next data set, the system named is flies. In words: toxicity to flies. On the set-up: species or system Drosophila. The note with it: in vivo. From the text: Scriptaid was toxic to flies.

Each structure is given as a SMILES string. pIC50: −log10 of the molar value. Entries after “also recorded” stand apart in the source; their conditions may differ.

For the molecule `O=C(Nc1ccc(Br)cc1)c1ccc(Br)c(S(=O)(=O)NC2CCCCC2)c1` [Compound C2, 4-Bromo-N-(4-bromo-phenyl)-3-cyclohexylsulfamoyl-benzamide], the pIC50 in data set [1] (Rattus norvegicus, PC-12, PC12 clones 14A2/5 and 14A2/6, muristerone A induced, 1 to 10 μM, read-out: IC50, aggregation of 103Q) was 5.30. Besides, the toxic concentrations entry in the data set with PC12 cells (PC12 cells) is “higher than 5 μM”. For the same molecule, in the data set on Cos1 cells, the “toxicity for Cos1 cells” value is given as “toxic”. In addition, the “aggregation of pure polyglutamines in vitro” value in data set [2] is “failed to block aggregation”. The “levels of endogenous p53 protein” value in the data set with p53 protein was “not changed”.
For the molecule `CCOC(=O)c1c(NC(=O)c2ccccc2C)sc(C(=O)Nc2ccccc2OC)c1C` [Compound D2, 5-(2-Methoxy-phenylcarbamoyl)-4-methyl-2-(2-methyl-benzoylamino)-thiophene-3-carboxylic acid ethyl ester], the “effect on protein aggregation” value in the data set on htt103Q-EGFP was “facilitators of protein aggregation”. Besides, the proteasomal dysfunction phenotype entry in the data set with proteasomal dysfunction is “relieved this phenotype”.
As for `COCCCN1C(=O)c2cccc3cccc(c23)C1=O` [Compound C9-2, 2-(3-Methoxy-propyl)-benzo[de]isoquinoline-1,3-dione], the effect on aggregation result in data set [3] was “does not appear to suppress aggregation; also recorded: facilitate protein-protein aggregation”. The “neurodegeneration of photoreceptor neurons” value in the data set on photoreceptor neurons was “dramatic neuroprotection”. In the data set with HDAc, the “direct inhibition of HDAc activity” value is “does not appear to inhibit”. Besides, the “transcriptional activation or repression” value in [4] is on record as “no transcriptional activation or repression”. The DNA binding activity entry with DNA was “nor has DNA binding activity been detected”. The transcription activation result in data set [5] was “did not effectively activate transcription”.
As for `O=C(CCCCCN1C(=O)c2cccc3cccc(c23)C1=O)NO` [Scriptaid, 6-(1,3-Dioxo-1H,3H-benzo[de]isoquinolin-2-yl)-hexanoic acid hydroxyamide, reference compound], the cells with aggregation in data set [1] (14A2/6 cells, 2.5 μM) is listed as 100%. Further, the cell viability result in the data set on PC12 cells (14A2/6 cells, 2.5 μM) was “cell death”. The figures for the expression of transgene entry in [6] (14A2/6 cells) and in [6] (other cell lines) were “dramatic overexpression” and “modestly stimulated”, respectively. The toxicity to flies entry in the data set with flies was “toxic”.
Turning to `CCOC(=O)c1c(NC(=O)Cc2ccc(OC)cc2)sc(C(=O)Nc2ccccc2OC)c1C` [Compound D1, 2-[2-(4-Methoxy-phenyl)-acetylamino]-5-(2-methoxy-phenylcarbamoyl)-4-methyl-thiophene-3-carboxylic acid ethyl ester], the “effect on protein aggregation” value with htt103Q-EGFP was “facilitators of protein aggregation”. In addition, the proteasomal dysfunction phenotype entry in the data set with proteasomal dysfunction is recorded as “relieved this phenotype”.
